Calls of active or inactive are those of the source. No rule for the calls is given here.
Target: Ubiquitin-conjugating enzyme E2 N (Homo sapiens) (UniProt P61088)
Test: NMR detection of UBE2N ligand binding – biophysical, purified protein (AID 1552)
Settings: NMR binding to purified UBE2N

Chain of Ubiquitin-conjugating enzyme E2 N (Homo sapiens) (P61088 whole entry, looked up): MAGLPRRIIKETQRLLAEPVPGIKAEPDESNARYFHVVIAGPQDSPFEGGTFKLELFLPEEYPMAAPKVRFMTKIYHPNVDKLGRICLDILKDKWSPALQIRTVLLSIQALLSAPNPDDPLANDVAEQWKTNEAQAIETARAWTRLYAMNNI

| SMILES | Kd |
| --- | --- |
| CC1=C(C(N)=O)C(c2cccs2)C(C(N)=O)=C(C)N1 | > 4 mM (inactive) |
| S=C(Nc1ccc2nccnc2c1)N1CCOCC1 | > 4 mM (inactive) |
| O=C(c1cccc(C(F)(F)F)c1)N1CCCC1 | > 4 mM (inactive) |
| NN1C(=O)/C(=C/c2ccc(O)c(O)c2)SC1=S | > 4 mM (inactive) |
| CC1(C)NC(=O)N(CCOc2ccc3c(c2)CCC3)C1=O | > 4 mM (inactive) |
| O=c1sc2ccccc2n1CN1CCOCC1 | > 4 mM (inactive) |
| CC(C)CCCC(C)C1CCC2C3C[C@@H](O)[C@@]4(O)C[C@@H](O)CC[C@]4(C)C3CC[C@]12C (some centres not stated) | > 4 mM (inactive) |
| CC(=O)CS(=O)(=O)c1ccccc1 | > 4 mM (inactive) |
| CNc1ccccc1C(=O)O | > 4 mM (inactive) |
| OCn1nnn(-c2ccccc2)c1=S | > 4 mM (inactive) |
| Nc1ncnc(Cl)c1[N+](=O)[O-] | > 4 mM (inactive) |
| COC(=O)C1=C(C)N(c2cccc(C(C)=O)c2)C(=O)C1 | > 4 mM (inactive) |
| COc1ccc([C@@H]2CC(=O)c3c(O)cc(O)cc3O2)cc1O | > 4 mM (inactive) |
| CC(=O)O[C@H]1CC[C@@]2(C)C(CC[C@]3(C)C2C(=O)C=C2C4[C@@H](C)[C@H](C)CC[C@]4(C(=O)O)CC[C@]23C)C1(C)C (some centres not stated) | > 4 mM (inactive) |
| CC(=O)N1CCN(C2CCSC2)CC1 (configuration not stated) | > 4 mM (inactive) |
| O=C(O)CSc1nc2ccccc2c(=O)[nH]1 | > 4 mM (inactive) |
| O=C1C(=O)N(CN2CCN(CCO)CC2)c2ccccc21 | > 4 mM (inactive) |
| CC(=O)Nc1cnn(Cc2ccc(Br)cc2)c1 | > 4 mM (inactive) |
| O=c1cc(-c2ccccc2)oc2c(O)c(O)ccc12 | > 4 mM (inactive) |
| CC1=C(/C=C/C(C)=C/C=C/C(C)=C/C=C/C=C(C)/C=C/C=C(C)/C=C/C(=O)[C@]2(C)C[C@@H](O)CC2(C)C)C(C)(C)C[C@H](O)C1 | > 4 mM (inactive) |
| Cc1cc(C)c(NC(=O)CN2CCC(O)CC2)c(C)c1 | > 4 mM (inactive) |

| SMILES | Kd |
| --- | --- |
| Cn1cnnc1SCC(=O)Nc1nccs1 | > 4 mM (inactive) |
| CC12CN([N+](=O)[O-])C3(C(N)=O)CC1CCC23C (configuration not stated) | > 4 mM (inactive) |
| COc1cc2c(cc1-c1coc3c4c(c(OC)cc3c1=O)OC(C)(C)C=C4)OCO2 | > 4 mM (inactive) |
| O=C1CSC(=Nc2cccc(C(F)(F)F)c2)N1 | > 4 mM (inactive) |
| CN1CCN(CC(O)c2ccccc2)CC1 (configuration not stated) | > 4 mM (inactive) |
| CSc1nc2nc(C)cc(=O)n2[nH]1 | > 4 mM (inactive) |
| O=C1CSC(=O)N1c1cccc(O)c1 | > 4 mM (inactive) |
| CCNC(=S)NS(=O)(=O)c1ccccc1 | > 4 mM (inactive) |
| Cc1cc(C)nc(Nc2n[nH]c(Cc3ccccc3)n2)n1 | > 4 mM (inactive) |
| CCOc1ccc(Cl)cc1S(=O)(=O)N1CCCC1 | > 4 mM (inactive) |
| Nc1cc(F)ccc1-n1ccnc1 | > 4 mM (inactive) |
| CC1(C)CC2C1CCC1(C)OC1CCC2(C)O (configuration not stated) | > 4 mM (inactive) |
| O=C(O)CC(O)c1nc2ccccc2[nH]1 (configuration not stated) | > 4 mM (inactive) |
| c1nnc2c3c4c(sc3ncn12)CCCC4 | > 4 mM (inactive) |
| NC(=O)Cc1nc(-c2ccc(F)cc2)cs1 | > 4 mM (inactive) |
| O=C(O)C1CC(=O)N(Cc2ccc(F)cc2)C1 (configuration not stated) | > 4 mM (inactive) |
| COc1cc(OC)c2c(OC)c(-c3ccc4c(c3)OCO4)c(=O)oc2c1 | > 4 mM (inactive) |
| COc1ccc(C(=O)/C=C/c2ccccc2)cc1 | > 4 mM (inactive) |
| CC1(C)CC2(CCO1)NCCN1C(=O)CSC12 (configuration not stated) | > 4 mM (inactive) |
| CC(=O)c1cccc(NS(=O)(=O)N(C)C)c1 | > 4 mM (inactive) |
| Cc1ccccc1NC(=O)CC1SC(N)=NC1=O (configuration not stated) | > 4 mM (inactive) |

| SMILES | Kd |
| --- | --- |
| O=C(NCCO)c1cc2ccccc2c(=O)s1 | > 4 mM (inactive) |
| Oc1ccc2c(c1)OCO2 | > 4 mM (inactive) |
| O=C1c2ccccc2C(=O)N1CCc1ccccn1 | > 4 mM (inactive) |
| [O-][n+]1onc2c1CCc1c-2nn(-c2ccccc2)[n+]1[O-] | > 4 mM (inactive) |
| CC(=O)c1c(O)cc(C)n(Cc2ccccc2)c1=O | > 4 mM (inactive) |
| CC1(C)C2CC[C@]3(C)C(C(=O)C=C4[C@@H]5C[C@@](C)(C(=O)O)CC[C@]5(C)CC[C@]43C)[C@@]2(C)CC[C@@H]1O (some centres not stated) | > 4 mM (inactive) |
| c1ccc(Cc2nnc3sc(-c4ccccn4)nn23)cc1 | > 4 mM (inactive) |
| CC(=O)n1nc(-c2cccnc2)nc1N | > 4 mM (inactive) |
| OCc1ccc2c(c1)OCCCO2 | > 4 mM (inactive) |
| NC(=O)COc1ccccc1O | > 4 mM (inactive) |
| O=c1[nH]c2sc3c(c2c2ncnn12)CCCC3 | > 4 mM (inactive) |
| Cn1c(SCCC(=O)O)nnc1-c1cccnc1 | > 4 mM (inactive) |
| CN1CCC=C(C(=O)O)C1 | > 4 mM (inactive) |
| O=S(=O)(O)c1nc2ccccc2[nH]1 | > 4 mM (inactive) |
| O=S1(=O)NC(=NCc2ccccc2)c2ccccc21 | > 4 mM (inactive) |
| NC(=O)CCS(=O)(=O)CCN1CCOCC1 | > 4 mM (inactive) |
| CC1(C)N=C2C(=[N+]1[O-])CCC/C2=N\O | > 4 mM (inactive) |
| COc1ccccc1-c1noc(-c2ccncc2)n1 | > 4 mM (inactive) |
| O=C1CSC(=O)N1CN1CCCC1 | > 4 mM (inactive) |
| O=C1C=C(O)c2ccccc2C1=O | > 4 mM (inactive) |
| NC1=NCc2ccccc21 | > 4 mM (inactive) |

| SMILES | Kd |
| --- | --- |
| COC(=O)c1c(SC)nc(-c2ccccc2)[nH]c1=O | > 4 mM (inactive) |
| O=c1[nH]c(=S)c2c(n1-c1ccccc1)CCC2 | > 4 mM (inactive) |
| C/C=C(\C)C(=O)O[C@H]1C[C@@H](OC(C)=O)[C@@]2(C(=O)OC)CO[C@@H]3C2[C@]12CO[C@](O)(C(=O)OC)[C@H]2[C@](C)(C12O[C@@]1(C)[C@H]1C[C@@H]2OC2OC=C[C@@]21O)[C@@H]3O (some centres not stated) | > 4 mM (inactive) |
| CCS(=O)(=O)N1CCN(c2ccccc2F)CC1 | > 4 mM (inactive) |
| O=C(O)c1ccccc1C(=O)NCC1CCCO1 (configuration not stated) | > 4 mM (inactive) |
| COc1cc([C@@H]2c3cc4c(cc3[C@H](O)[C@H]3COC(=O)[C@H]23)OCO4)cc(OC)c1OC | > 4 mM (inactive) |
| COC(=O)c1cncc(C(=O)OC)c1 | > 4 mM (inactive) |
| CC1(C)C2CC[C@]3(C)C(C(=O)C=C4[C@H]5C[C@@](C)(C(=O)O)CC[C@]5(C)CC[C@]43C)[C@@]2(C)CC[C@@H]1O (some centres not stated) | > 4 mM (inactive) |
| O=C(Cn1cnc2ccccc2c1=O)N1CCOCC1 | > 4 mM (inactive) |
| O=[N+]([O-])c1c[n+]([O-])n(-c2ccccc2)n1 | > 4 mM (inactive) |
| COc1c2ccoc2nc2c(OC)c(OCC(O)C(C)(C)O)ccc12 (configuration not stated) | > 4 mM (inactive) |
| Cn1nnc2cc(C(=O)O)ccc21 | > 4 mM (inactive) |
| O=CN1CCN(C(=O)c2ccc(F)cc2)CC1 | > 4 mM (inactive) |
| Cc1cc(=O)[nH]c(N)n1 | > 4 mM (inactive) |
| CN1C(=O)/C(=C/c2ccc(O)cc2O)SC1=S | > 4 mM (inactive) |
| O=c1[nH]cnc2c1nnn2Cc1ccccc1 | > 4 mM (inactive) |
| Cc1nc2ccc(F)cc2cc1C(=O)NCc1ccco1 | > 4 mM (inactive) |
| CC(N)C(=O)c1ccco1 (configuration not stated) | > 4 mM (inactive) |
| Cc1csc2nc(N)nn12 | > 4 mM (inactive) |

From PubChem BioAssay AID1552 (Sanford-Burnham Center for Chemical Genomics, 2009)
